Laboratory results taken from article PMC5564600 (Oncotarget, 2017).

Key:
Assay in all cases: biochemical
Assay type in all cases: binding
[1] = target: T1, panel of 442 kinases (Homo sapiens, UniProt Q16539); conditions: kinase p38-alpha; for remaining activity at 1 µM: read-out: % of control at 1 µM
T1 construct: purchased Ambit Biosciences (scanMAXX KINOMEscan)

[2] = target: T2, panel of 442 kinases (Homo sapiens, UniProt Q05655); conditions: kinase PRKCD; for remaining activity at 1 µM: read-out: PRKCD (% of control at 1 µM)
T2 construct: purchased Ambit Biosciences (scanMAXX KINOMEscan)
T2 sequence (Q05655 whole entry): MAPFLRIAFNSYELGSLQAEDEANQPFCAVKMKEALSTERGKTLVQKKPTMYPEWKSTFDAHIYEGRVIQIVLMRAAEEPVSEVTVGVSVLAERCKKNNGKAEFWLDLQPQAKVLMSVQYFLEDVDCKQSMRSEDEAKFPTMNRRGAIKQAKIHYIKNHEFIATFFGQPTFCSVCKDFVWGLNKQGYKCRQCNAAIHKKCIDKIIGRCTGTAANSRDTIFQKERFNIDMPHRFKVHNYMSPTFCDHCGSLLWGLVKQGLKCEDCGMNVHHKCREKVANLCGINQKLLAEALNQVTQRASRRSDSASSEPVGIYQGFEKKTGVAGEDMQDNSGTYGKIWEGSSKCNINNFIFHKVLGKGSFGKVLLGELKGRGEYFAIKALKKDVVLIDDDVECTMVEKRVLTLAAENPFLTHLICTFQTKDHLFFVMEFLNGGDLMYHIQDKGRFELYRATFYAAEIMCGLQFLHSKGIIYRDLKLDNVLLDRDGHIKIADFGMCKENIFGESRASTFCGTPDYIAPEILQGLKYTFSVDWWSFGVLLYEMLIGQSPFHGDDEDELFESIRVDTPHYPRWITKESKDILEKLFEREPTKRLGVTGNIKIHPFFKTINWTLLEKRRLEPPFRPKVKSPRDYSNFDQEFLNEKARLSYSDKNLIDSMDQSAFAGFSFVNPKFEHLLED

[3] = target: T3, panel of 442 kinases (Homo sapiens, UniProt P51812); conditions: kinase RSK2(Kin.Dom.1-N-terminal); for remaining activity at 1 µM: read-out: RSK2(Kin.Dom.1-N-terminal) (% of control at 1 µM)
T3 construct: purchased Ambit Biosciences (scanMAXX KINOMEscan)
T3 sequence (P51812 whole entry): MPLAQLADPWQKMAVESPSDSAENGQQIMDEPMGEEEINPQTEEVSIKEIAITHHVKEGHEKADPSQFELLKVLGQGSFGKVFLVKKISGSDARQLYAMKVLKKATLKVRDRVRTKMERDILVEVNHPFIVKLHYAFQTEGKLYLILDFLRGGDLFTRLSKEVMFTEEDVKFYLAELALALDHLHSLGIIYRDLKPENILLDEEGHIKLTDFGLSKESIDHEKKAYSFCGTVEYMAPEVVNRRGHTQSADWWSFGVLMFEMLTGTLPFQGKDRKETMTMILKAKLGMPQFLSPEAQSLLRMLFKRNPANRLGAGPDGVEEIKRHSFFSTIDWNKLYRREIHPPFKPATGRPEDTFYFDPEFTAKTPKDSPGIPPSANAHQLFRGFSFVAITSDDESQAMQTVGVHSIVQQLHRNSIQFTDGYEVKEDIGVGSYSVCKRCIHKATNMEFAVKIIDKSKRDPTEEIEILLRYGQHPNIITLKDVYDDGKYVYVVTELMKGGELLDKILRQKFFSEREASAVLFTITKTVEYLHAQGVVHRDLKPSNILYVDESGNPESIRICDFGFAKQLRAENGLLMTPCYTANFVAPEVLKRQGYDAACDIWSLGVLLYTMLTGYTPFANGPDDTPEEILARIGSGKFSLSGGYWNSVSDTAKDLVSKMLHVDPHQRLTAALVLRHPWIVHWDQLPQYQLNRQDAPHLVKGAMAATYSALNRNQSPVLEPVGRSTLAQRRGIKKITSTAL

[4] = target: T4, panel of 442 kinases (Homo sapiens, UniProt P10721, L576P); conditions: kinase KIT(L576P); for remaining activity at 1 µM: read-out: % of control at 1 µM
T4 construct: purchased Ambit Biosciences (scanMAXX KINOMEscan)
T4 sequence (P10721 26-976 L576P): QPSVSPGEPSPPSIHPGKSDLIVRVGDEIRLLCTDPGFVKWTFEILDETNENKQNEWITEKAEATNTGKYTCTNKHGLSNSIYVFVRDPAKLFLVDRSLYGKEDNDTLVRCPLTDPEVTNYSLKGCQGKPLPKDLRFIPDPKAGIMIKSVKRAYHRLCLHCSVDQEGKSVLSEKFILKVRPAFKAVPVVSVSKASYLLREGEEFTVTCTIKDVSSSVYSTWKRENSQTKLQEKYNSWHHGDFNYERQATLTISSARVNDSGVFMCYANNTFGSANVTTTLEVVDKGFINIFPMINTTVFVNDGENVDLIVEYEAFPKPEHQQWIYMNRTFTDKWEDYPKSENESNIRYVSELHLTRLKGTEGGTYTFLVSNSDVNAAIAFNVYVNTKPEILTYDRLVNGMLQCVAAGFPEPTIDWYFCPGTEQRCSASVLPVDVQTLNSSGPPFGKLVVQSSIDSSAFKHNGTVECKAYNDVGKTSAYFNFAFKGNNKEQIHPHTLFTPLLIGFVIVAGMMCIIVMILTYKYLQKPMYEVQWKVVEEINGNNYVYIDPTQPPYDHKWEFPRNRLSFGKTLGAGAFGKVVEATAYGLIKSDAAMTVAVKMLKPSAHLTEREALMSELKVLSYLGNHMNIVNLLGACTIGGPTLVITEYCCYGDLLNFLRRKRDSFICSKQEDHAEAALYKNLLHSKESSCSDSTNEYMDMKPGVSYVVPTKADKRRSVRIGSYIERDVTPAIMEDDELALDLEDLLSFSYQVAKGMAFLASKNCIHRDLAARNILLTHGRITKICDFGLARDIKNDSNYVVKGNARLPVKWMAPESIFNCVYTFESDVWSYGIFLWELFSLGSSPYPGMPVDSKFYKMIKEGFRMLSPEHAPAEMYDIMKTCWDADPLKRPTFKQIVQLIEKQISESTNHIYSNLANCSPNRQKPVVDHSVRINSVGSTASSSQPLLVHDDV

[5] = target: T5, panel of 442 kinases (Homo sapiens, UniProt P54762); conditions: EPHB1; for remaining activity at 1 µM: read-out: % of control at 1 µM
T5 construct: purchased Ambit Biosciences (scanMAXX KINOMEscan)
T5 sequence (P54762 18-984): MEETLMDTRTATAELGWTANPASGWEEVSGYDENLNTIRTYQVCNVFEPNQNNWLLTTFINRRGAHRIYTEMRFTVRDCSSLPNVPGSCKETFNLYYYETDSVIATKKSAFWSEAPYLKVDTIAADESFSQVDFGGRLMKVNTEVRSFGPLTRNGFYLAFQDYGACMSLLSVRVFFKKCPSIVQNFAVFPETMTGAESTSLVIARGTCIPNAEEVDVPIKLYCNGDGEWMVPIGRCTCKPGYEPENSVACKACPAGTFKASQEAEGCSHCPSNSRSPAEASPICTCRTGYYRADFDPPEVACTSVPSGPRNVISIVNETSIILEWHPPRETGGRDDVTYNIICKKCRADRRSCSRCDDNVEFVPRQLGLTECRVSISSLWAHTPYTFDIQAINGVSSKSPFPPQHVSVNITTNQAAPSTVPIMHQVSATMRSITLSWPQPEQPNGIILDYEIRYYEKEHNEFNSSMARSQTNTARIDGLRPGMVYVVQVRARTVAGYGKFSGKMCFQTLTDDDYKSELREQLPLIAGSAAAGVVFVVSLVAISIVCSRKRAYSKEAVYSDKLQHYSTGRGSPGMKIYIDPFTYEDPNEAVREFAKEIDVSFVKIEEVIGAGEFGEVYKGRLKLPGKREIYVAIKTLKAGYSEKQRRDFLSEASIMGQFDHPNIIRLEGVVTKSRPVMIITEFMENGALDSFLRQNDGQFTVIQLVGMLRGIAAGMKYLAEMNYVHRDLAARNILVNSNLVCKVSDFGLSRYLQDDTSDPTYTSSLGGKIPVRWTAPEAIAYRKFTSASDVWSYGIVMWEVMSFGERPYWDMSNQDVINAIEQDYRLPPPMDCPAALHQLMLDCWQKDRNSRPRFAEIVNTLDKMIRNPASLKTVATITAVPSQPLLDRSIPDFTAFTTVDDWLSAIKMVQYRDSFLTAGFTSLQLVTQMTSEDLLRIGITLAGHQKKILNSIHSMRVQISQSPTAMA

[6] = target: T6, panel of 442 kinases (Homo sapiens, UniProt P50613); conditions: CDK7; for remaining activity at 1 µM: read-out: % of control at 1 µM
T6 construct: purchased Ambit Biosciences (scanMAXX KINOMEscan)
T6 sequence (P50613 whole entry): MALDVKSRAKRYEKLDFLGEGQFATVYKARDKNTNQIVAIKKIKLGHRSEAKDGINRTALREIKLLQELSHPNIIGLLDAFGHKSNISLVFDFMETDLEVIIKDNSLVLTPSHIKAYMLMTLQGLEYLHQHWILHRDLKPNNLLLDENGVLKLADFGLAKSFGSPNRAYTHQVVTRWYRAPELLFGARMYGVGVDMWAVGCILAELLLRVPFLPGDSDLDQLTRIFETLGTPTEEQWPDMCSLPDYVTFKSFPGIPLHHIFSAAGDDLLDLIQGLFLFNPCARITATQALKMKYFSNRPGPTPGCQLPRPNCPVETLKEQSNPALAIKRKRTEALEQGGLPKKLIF

[7] = target: T7, panel of 442 kinases (Homo sapiens, UniProt Q15835); conditions: kinase GRK1; for remaining activity at 1 µM: read-out: % of control at 1 µM
T7 construct: purchased Ambit Biosciences (scanMAXX KINOMEscan)
T7 sequence (Q15835 1-563): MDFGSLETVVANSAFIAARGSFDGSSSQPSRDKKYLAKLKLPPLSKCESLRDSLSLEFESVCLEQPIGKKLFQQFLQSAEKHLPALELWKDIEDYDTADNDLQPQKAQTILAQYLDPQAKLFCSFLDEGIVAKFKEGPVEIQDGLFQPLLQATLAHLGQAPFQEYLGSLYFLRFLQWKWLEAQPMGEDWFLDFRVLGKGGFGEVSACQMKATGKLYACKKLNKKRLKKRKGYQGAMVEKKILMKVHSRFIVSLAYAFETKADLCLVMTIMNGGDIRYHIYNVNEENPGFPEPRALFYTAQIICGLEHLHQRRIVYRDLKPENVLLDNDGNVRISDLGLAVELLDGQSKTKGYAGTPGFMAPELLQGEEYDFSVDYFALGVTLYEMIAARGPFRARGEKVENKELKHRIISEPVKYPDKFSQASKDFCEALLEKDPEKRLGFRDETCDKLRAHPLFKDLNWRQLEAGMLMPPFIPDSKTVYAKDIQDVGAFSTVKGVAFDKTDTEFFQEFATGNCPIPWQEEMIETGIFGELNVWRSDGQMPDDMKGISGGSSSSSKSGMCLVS

[8] = target: T8, panel of 442 kinases (Homo sapiens, UniProt P20794); conditions: kinase MAK; for remaining activity at 1 µM: read-out: % of control at 1 µM
T8 construct: purchased Ambit Biosciences (scanMAXX KINOMEscan)
T8 sequence (P20794 1-623): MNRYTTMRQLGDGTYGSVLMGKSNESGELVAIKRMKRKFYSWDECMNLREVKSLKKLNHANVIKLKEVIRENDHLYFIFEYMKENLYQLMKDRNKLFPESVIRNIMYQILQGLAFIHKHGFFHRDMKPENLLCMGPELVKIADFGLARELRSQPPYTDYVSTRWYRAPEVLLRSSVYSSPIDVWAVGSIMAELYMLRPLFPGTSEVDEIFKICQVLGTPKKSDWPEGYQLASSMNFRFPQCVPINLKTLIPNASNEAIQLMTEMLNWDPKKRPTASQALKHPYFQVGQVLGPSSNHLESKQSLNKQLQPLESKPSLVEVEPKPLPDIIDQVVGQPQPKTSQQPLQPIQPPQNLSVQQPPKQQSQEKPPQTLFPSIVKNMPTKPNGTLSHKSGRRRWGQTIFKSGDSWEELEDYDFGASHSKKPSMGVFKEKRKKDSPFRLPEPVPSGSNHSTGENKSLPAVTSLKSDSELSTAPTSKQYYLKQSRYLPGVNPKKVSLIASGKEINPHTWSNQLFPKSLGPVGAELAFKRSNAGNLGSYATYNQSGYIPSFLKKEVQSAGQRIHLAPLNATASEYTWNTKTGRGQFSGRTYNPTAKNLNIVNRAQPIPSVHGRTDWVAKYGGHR

[9] = target: T9, panel of 442 kinases (Homo sapiens, UniProt P00519, Y253F); conditions: ABL1(Y253F)-phosphorylated; for remaining activity at 1 µM: read-out: % of control at 1 µM
T9 construct: purchased Ambit Biosciences (scanMAXX KINOMEscan)

[10] = 10 µM, read-out: % of control at 10 µM

T1 sequence (Q16539 whole entry): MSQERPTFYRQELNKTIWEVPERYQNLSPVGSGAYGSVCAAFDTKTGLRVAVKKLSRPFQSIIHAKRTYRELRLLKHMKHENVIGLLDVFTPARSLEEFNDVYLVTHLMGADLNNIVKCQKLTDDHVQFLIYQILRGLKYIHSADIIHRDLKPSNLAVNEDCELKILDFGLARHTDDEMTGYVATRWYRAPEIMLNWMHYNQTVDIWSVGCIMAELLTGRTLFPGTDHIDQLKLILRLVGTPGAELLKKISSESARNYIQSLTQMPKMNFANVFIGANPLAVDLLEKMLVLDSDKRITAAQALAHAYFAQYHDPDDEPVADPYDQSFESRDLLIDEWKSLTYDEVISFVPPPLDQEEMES

Compound | remaining activity at 1 µM [1] [%] | remaining activity at 10 µM [1, 10] [%] | remaining activity at 1 µM [2] [%] | remaining activity at 10 µM ([2]; 10 µM, read-out: PRKCD (% of control at 10 µM)) [%] | remaining activity at 1 µM [3] [%] | remaining activity at 10 µM ([3]; 10 µM, read-out: RSK2(Kin.Dom.1-N-terminal) (% of control at 10 µM)) [%] | remaining activity at 1 µM [4] [%] | remaining activity at 10 µM [4, 10] [%] | remaining activity at 1 µM [5] [%] | remaining activity at 10 µM [5, 10] [%] | remaining activity at 1 µM [6] [%] | remaining activity at 10 µM [6, 10] [%] | remaining activity at 1 µM [7] [%] | remaining activity at 10 µM [7, 10] [%] | remaining activity at 1 µM [8] [%] | remaining activity at 10 µM [8, 10] [%] | remaining activity at 1 µM [9] [%] | remaining activity at 10 µM [9, 10] [%]
Nc1cc(C(F)(F)F)c(-c2cc(N3CCOCC3)nc(N3CCOCC3)n2)cn1 [Buparlisib] | 87 | 100 | 100 | 100 | 99 | 87 | 80 | 24 | 88 | 100 | 93 | 100 | 100 | 100 | 98 | 89 | 85 | 94
Cn1c(=O)n(-c2ccc(C(C)(C)C#N)cc2)c2c3cc(-c4cnc5ccccc5c4)ccc3ncc21 [Dactolisib, 2-methyl-2-[4-(3-methyl-2-oxo-8-quinolin-3-yl-2,3-dihydroimidazo[4,5-c]quinolin-1-yl)-phenyl] propionitrile] | 87 |  | 86 |  |  |  | 59 |  | 100 |  | 57 |  | 100 |  | 64 |  | 82 | 
COc1ncc(-c2ccc3nccc(-c4ccnnc4)c3c2)cc1NS(=O)(=O)c1ccc(F)cc1F [Omipalisib] | 97 |  | 74 |  | 62 |  | 90 |  | 100 |  | 100 |  | 81 |  | 71 |  | 100 | 
FC(F)c1nc2ccccc2n1-c1nc(N2CCOCC2)nc(N2CCOCC2)n1 [ZSTK474, 2-(difluoromethyl)-1-[4,6-di(4-morpholinyl)-1,3,5-triazin-2-yl]-1H-benzimidazole] | 100 |  | 100 |  | 88 |  | 100 |  | 99 |  | 68 |  | 100 |  | 87 |  | 96 | 
